In US20050009894A1 (Aventis Pharma S.A., priority 2001, published 2005):

target: T1, human KDR enzyme (Homo sapiens, UniProt P35968); assay: Phosphorylation of the substrate PLCγ by the enzyme KDR in vitro (flashplate technique); type: biochemical; conditions: Table VII, degrees of activity by IC50 range; read-out: Activity
T1 construct: The cytoplasmic domain of human KDR enzyme is cloned in the form of a GST fusion; GST; made in house; host or cells: SF21 insect cells (baculovirus, pFastBac)
Outline: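 GST-fused human KDR cytoplasmic domain (Sf21 baculovirus, ~60% pure; 100 ng/well) phosphorylating 2 μg GST-PLCγ SH2-SH3 fragment in MOPS pH 7.2 with MgCl2/MnCl2, 1 h at 37° C. Started with γ33P-ATP plus cold ATP (2 μM in start solution); flashplate radioactivity. % inhibition vs no-compound control; IC50 from dose-response curves.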

T1 sequence (P35968 786-1356 limits assumed): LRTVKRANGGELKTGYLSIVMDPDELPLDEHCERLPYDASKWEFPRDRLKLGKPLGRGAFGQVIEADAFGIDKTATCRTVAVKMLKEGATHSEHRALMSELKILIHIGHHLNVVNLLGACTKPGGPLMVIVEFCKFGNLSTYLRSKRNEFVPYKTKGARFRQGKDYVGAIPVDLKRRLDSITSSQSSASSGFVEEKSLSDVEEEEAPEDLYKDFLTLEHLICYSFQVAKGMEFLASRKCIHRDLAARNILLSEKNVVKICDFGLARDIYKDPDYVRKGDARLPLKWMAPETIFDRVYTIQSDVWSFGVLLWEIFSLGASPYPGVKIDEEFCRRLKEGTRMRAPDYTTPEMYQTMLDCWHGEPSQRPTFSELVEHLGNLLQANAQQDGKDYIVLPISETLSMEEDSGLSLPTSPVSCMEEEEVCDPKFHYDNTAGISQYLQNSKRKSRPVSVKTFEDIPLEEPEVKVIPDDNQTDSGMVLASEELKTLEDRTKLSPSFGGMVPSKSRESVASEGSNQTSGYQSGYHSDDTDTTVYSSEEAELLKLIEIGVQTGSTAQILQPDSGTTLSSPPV

`O=C(NCc1ccccc1F)c1ccc2[nH]c(-c3n[nH]c4ccccc34)nc2c1` [Example 154, 2-(1H-Indazol-3-yl)-1H-benzoimidazole-5-carboxylic acid 2-fluoro-benzylamide] and `O=C(NCc1ccc(F)cc1F)c1ccc2[nH]c(-c3n[nH]c4ccccc34)nc2c1` [Example 155, 2-(1H-Indazol-3-yl)-1H-benzoimidazole-5-carboxylic acid 2,4-difluoro-benzylamide] fall in the same range of IC50: 0.3 to 3 µM for the first, 0.3 to 3 µM for the second.

`O=C(NCc1c(F)cccc1F)c1ccc2[nH]c(-c3n[nH]c4ccccc34)nc2c1` [Example 156, 2-(1H-Indazol-3-yl)-1H-benzoimidazole-5-carboxylic acid 2,6-difluoro-benzylamide] and `Cc1ccc(F)c(CNC(=O)c2ccc3[nH]c(-c4n[nH]c5ccccc45)nc3c2)c1F` [Example 166, 2-(1H-Indazol-3-yl)-1H-benzoimidazole-5-carboxylic acid 2,6-difluoro-3-methyl-benzylamide] fall in the same range of IC50: 0.3 to 3 µM for the first, 0.3 to 3 µM for the second.

First: O=C(NCc1ccc(Br)cc1F)c1ccc2[nH]c(-c3n[nH]c4ccccc34)nc2c1 [Example 157, 2-(1H-Indazol-3-yl)-1H-benzoimidazole-5-carboxylic acid 4-bromo-2-fluoro-benzylamide]
Second: O=C(NCc1ccc(Cl)cc1F)c1ccc2[nH]c(-c3n[nH]c4ccccc34)nc2c1 [Example 158, 2-(1H-Indazol-3-yl)-1H-benzoimidazole-5-carboxylic acid 4-chloro-2-fluoro-benzylamide]
The IC50 of the first is lower: less than 0.3 µM for the first, 0.3 to 3 µM for the second.

First: O=C(NCc1ccc(Br)cc1F)c1ccc2[nH]c(-c3n[nH]c4ccccc34)nc2c1 [Example 159, 2-(1H-Indazol-3-yl)-1H-benzoimidazole-5-carboxylic acid 4-bromo-2-fluoro-benzylamide]
Second: O=C(NCc1ccccc1F)c1ccc2[nH]c(-c3n[nH]c4ccccc34)nc2c1 [Example 165, 2-(1H-Indazol-3-yl)-1H-benzoimidazole-5-carboxylic acid 2-fluoro-benzylamide]
The IC50 of the first is lower: 0.3 to 3 µM for the first, greater than 3 µM for the second. The first is the more potent here.

First: O=C(NCc1ccc(F)c(F)c1)c1ccc2[nH]c(-c3n[nH]c4ccccc34)nc2c1 [Example 160, 2-(1H-Indazol-3-yl)-1H-benzoimidazole-5-carboxylic acid 3,4-difluoro-benzylamide]
Second: O=C(NCc1ccc(Cl)c(F)c1)c1ccc2[nH]c(-c3n[nH]c4ccccc34)nc2c1 [Example 178, 2-(1H-Indazol-3-yl)-1H-benzoimidazole-5-carboxylic acid (3-fluoro-4-chloro-benzyl)amide]
The IC50 of the first is higher: 0.3 to 3 µM for the first, less than 0.3 µM for the second. The second is the more potent here.

Compared with `O=C(NCc1cc(F)c(F)c(F)c1)c1ccc2[nH]c(-c3n[nH]c4ccccc34)nc2c1` [Example 161, 2-(1H-Indazol-3-yl)-1H-benzoimidazole-5-carboxylic acid 3,4,5-trifluoro-benzylamide], `O=C(NCc1c(F)cc(Cl)cc1F)c1ccc2[nH]c(-c3n[nH]c4ccccc34)nc2c1` [Example 176, 2-(1H-Indazol-3-yl)-1H-benzoimidazole-5-carboxylic acid (2,6-difluoro-4-chloro-benzyl)amide] is lower in IC50: 0.3 to 3 µM for the first, less than 0.3 µM for the second.

`O=C(NCc1ccc(-c2ccc(Cl)cc2)cc1)c1ccc2[nH]c(-c3n[nH]c4ccccc34)nc2c1` [Example 162, 2-(1H-Indazol-3-yl)-1H-benzoimidazole-5-carboxylic acid (4′-chloro-biphenyl-4-ylmethyl)-amide] and `O=C(NCc1ccc(-c2ccc(F)cc2)cc1)c1ccc2[nH]c(-c3n[nH]c4ccccc34)nc2c1` [Example 164] cannot be ordered by IC50: greater than 3 µM for the first, greater than 3 µM for the second.

Going from `O=C(NCc1ccc(-c2cc(Cl)cc(Cl)c2)cc1)c1ccc2[nH]c(-c3n[nH]c4ccccc34)nc2c1` [Example 163, 2-(1H-Indazol-3-yl)-1H-benzoimidazole-5-carboxylic acid (3′,5′-dichloro-biphenyl-4-ylmethyl)-amide] to `O=C(NCc1ccc(Cl)cc1)c1ccc2[nH]c(-c3n[nH]c4ccccc34)nc2c1` [Example 168, 2-(1H-Indazol-3-yl)-1H-benzoimidazole-5-carboxylic acid 4-chloro-benzylamide], the IC50 falls from greater than 3 µM to less than 0.3 µM.

`O=C(NCc1ccc(Cl)cc1Cl)c1ccc2[nH]c(-c3n[nH]c4ccccc34)nc2c1` [Example 167, 2-(1H-Indazol-3-yl)-1H-benzoimidazole-5-carboxylic acid 2,4-dichloro-benzylamide] and `Cc1cc(Cl)ccc1CNC(=O)c1ccc2[nH]c(-c3n[nH]c4ccccc34)nc2c1` [Example 169, 2-(1H-Indazol-3-yl)-1H-benzoimidazole-5-carboxylic acid 4-chloro-2-methyl-benzylamide] cannot be ordered by IC50: less than 0.3 µM for the first, less than 0.3 µM for the second.

First: O=C(NCc1ccc(F)cc1)c1ccc2[nH]c(-c3n[nH]c4ccccc34)nc2c1 [Example 170, 2-(1H-Indazol-3-yl)-1H-benzoimidazole-5-carboxylic acid 4-fluoro-benzylamide]
Second: COc1ccc(CNC(=O)c2ccc3[nH]c(-c4n[nH]c5ccccc45)nc3c2)cn1 [Example 180, 2-(1H-Indazol-3-yl)-1H-benzoimidazole-5-carboxylic acid (6-methoxy-pyridin-3-ylmethyl)-amide]
The IC50 of the first is higher: 0.3 to 3 µM for the first, less than 0.3 µM for the second.

`O=C(NCc1ccc(-c2ccccc2Cl)cc1)c1ccc2[nH]c(-c3n[nH]c4ccccc34)nc2c1` [Example 171, 2-(1H-Indazol-3-yl)-1H-benzoimidazole-5-carboxylic acid (2′-chloro-biphenyl-4-ylmethyl)-amide] and `O=C(NCc1ccc(-c2ccccn2)s1)c1ccc2[nH]c(-c3n[nH]c4ccccc34)nc2c1` [Example 173, 2-(1H-Indazol-3-yl)-1H-benzoimidazole-5-carboxylic acid (5-pyridin-2-yl-thiophen-2-ylmethyl)-amide] fall in the same range of IC50: 0.3 to 3 µM for the first, 0.3 to 3 µM for the second.

First: O=C(NCc1ccc(C(F)(F)F)nc1)c1ccc2[nH]c(-c3n[nH]c4ccccc34)nc2c1 [Example 172, 2-(1H-Indazol-3-yl)-1H-benzoimidazole-5-carboxylic acid (6-trifluoromethyl-pyridin-3-ylmethyl)-amide]
Second: O=C(NCc1c(F)cc(Cl)cc1Cl)c1ccc2[nH]c(-c3n[nH]c4ccccc34)nc2c1 [Example 177, 2-(1H-Indazol-3-yl)-1H-benzoimidazole-5-carboxylic acid (2,4-dichloro-6-fluoro-benzyl)amide]
The IC50 of the first is higher: 0.3 to 3 µM for the first, less than 0.3 µM for the second.

First: O=C(NCCCn1ccnc1)c1ccc2[nH]c(-c3n[nH]c4ccccc34)nc2c1 [Example 174, 2-(1H-Indazol-3-yl)-1H-benzoimidazole-5-carboxylic acid (3-imidazol-1-yl-propyl)-amide]
Second: Cc1cc(Cl)cc(F)c1CNC(=O)c1ccc2[nH]c(-c3n[nH]c4ccccc34)nc2c1 [Example 179, 2-(1H-Indazol-3-yl)-1H-benzoimidazole-5-carboxylic acid (2-fluoro-4-chloro-6-methyl-benzyl)amide]
The IC50 of the first is higher: 0.3 to 3 µM for the first, less than 0.3 µM for the second.

First: CC(C)(C)OC(=O)N1CCN(C(=O)c2ccc3[nH]c(-c4n[nH]c5ccccc45)nc3c2)CC1 [Example 175, 4-[2-(1H-Indazol-3-yl)-1H-benzoimidazole-5-carbonyl]-piperazine-1-carboxylic acid tert-butyl ester]
Second: CC(C)(C)c1ccc(COc2cc(-c3nc4ccccc4[nH]3)[nH]n2)cc1 [Example 190, 2-[5-(4-tert-Butyl-benzyloxy)-2H-pyrazol-3-yl]-1H-benzoimidazole]
The IC50 of the first is lower: 0.3 to 3 µM for the first, greater than 3 µM for the second.

`c1ccc(COc2cc(-c3nc4ccccc4[nH]3)[nH]n2)cc1` [Example 181, 2-[5-(benzyloxy)-2H-pyrazol-3-yl]-1H-benzoimidazole] and `Brc1cccc(COc2cc(-c3nc4ccccc4[nH]3)[nH]n2)c1` [Example 185, 2-[5-(3-Bromo-benzyloxy)-2H-pyrazol-3-yl]-1H-benzoimidazole] fall in the same range of IC50: 0.3 to 3 µM for the first, 0.3 to 3 µM for the second.

`C(=C\c1ccccc1)/COc1cc(-c2nc3ccccc3[nH]2)[nH]n1` [Example 182, 2-[5-(3-Phenyl-allyloxy)-2H-pyrazol-3-yl]-1H-benzoimidazole] and `c1ccc(-c2ccc(COc3cc(-c4nc5ccccc5[nH]4)[nH]n3)cc2)cc1` [Example 193, 2-[5-(Biphenyl-4-ylmethoxy)-2H-pyrazol-3-yl]-1H-benzoimidazole] fall in the same range of IC50: 0.3 to 3 µM for the first, 0.3 to 3 µM for the second.

First: C=C(C)COc1cc(-c2nc3ccccc3[nH]2)[nH]n1 [Example 183, 2-[5-(2-Methyl-allyloxy)-2H-pyrazol-3-yl]-1H-benzoimidazole]
Second: CC(C)=CCC/C(C)=C/COc1cc(-c2nc3ccccc3[nH]2)[nH]n1 [Example 184, 2-[5-(3,7-Dimethyl-octa-2,6-dienyloxy)-2H-pyrazol-3-yl]-1H-benzoimidazole]
The IC50 of the first is higher: greater than 3 µM for the first, 0.3 to 3 µM for the second. The second is the more potent here.

`N#Cc1cccc(COc2cc(-c3nc4ccccc4[nH]3)[nH]n2)c1` [Example 186, 3-[5-(1H-Benzoimidazol-2-yl)-1H-pyrazol-3-yloxymethyl]-benzonitrile] and `N#Cc1ccc(COc2cc(-c3nc4ccccc4[nH]3)[nH]n2)cc1` [Example 192, 4-[5-(1H-Benzoimidazol-2-yl)-1H-pyrazol-3-yloxymethyl]-benzonitrile] cannot be ordered by IC50: greater than 3 µM for the first, greater than 3 µM for the second.

First: FC(F)(F)c1ccc(COc2cc(-c3nc4ccccc4[nH]3)[nH]n2)cc1 [Example 187, 2-[5-(4-Trifluoromethyl-benzyloxy)-2H-pyrazol-3-yl]-1H-benzoimidazole]
Second: Clc1ccc(COc2cc(-c3nc4ccccc4[nH]3)[nH]n2)cc1Cl [Example 188, 2-[5-(3,4-Dichloro-benzyloxy)-2H-pyrazol-3-yl]-1H-benzoimidazole]
The IC50 of the first is higher: greater than 3 µM for the first, 0.3 to 3 µM for the second.

First: Fc1c(F)c(F)c(COc2cc(-c3nc4ccccc4[nH]3)[nH]n2)c(F)c1F [Example 189, 2-(5-Pentafluoro-phenylmethoxy-2H-pyrazol-3-yl)-1H-benzoimidazole]
Second: O=S(=O)(Cc1ccccc1COc1cc(-c2nc3ccccc3[nH]2)[nH]n1)c1ccccc1 [Example 191, 2-[5-(2-Benzenesulfonylmethylbenzyloxy)-2H-pyrazol-3-yl]-1H-benzoimidazole]
The IC50 of the first is higher: greater than 3 µM for the first, 0.3 to 3 µM for the second.
